≈ marks a conversion by molar mass, not a printed value. Like-named read-outs stand apart in the source and are kept apart here.
Assays:
Enterobacter cloacae [1] = assay: interaction with sulphamethoxazole, disc approximation method; type: cell-based
Experimental: (§1) 3) The interaction of 6-fluoroshikimate (racemic mixture) with a representative sulphonamide (sulphamethoxazole) was tested using both a disc approximation method and chequerboard titration.

Klebsiella pneumoniae [2] = assay: as above; type: cell-based
Experimental: as §1

E. coli K12 [3] = assay: as above; type: cell-based
Experimental: as §1

carrot cells [4] = assay: standard carrot cell test for herbicidal activity; type: cell-based; settings: carrot cells in liquid culture, shake flasks, 25° C.
Experimental: 5) In a standard test for herbicidal activity carrot cells were grown in shake flasks at 25° C. in liquid culture (Murashige and Skoog media with 0.2 mg/liter of kinetin and 0.1 mg/liter of 2.4 dichlorophenoxyacetic acid). The growth of cells was measured and an IC50 value obtained for compounds which were added in water.

E. coli K12 [5] = assay: interaction with sulphamethoxazole, chequerboard titration; type: cell-based
Experimental: as §1

E. coli 341094 = assay: mouse protection test; type: in vivo; parameters: unit not given beside the values; settings: mice
E. coli N99 [6] = assay: disc diffusion antibacterial activity, zones of inhibition; type: cell-based; settings: Escherichia coli; for zone of inhibition at 1.5 µg/disc: 1.5 μg applied on to disc
Experimental: (§2) 1) Antimicrobial activity was assessed in vitro using a disc diffusion method and a method wherein the test compound was in agar. Both methods employed the use of Davis and Mingioli (J. Bact (1950) 60 17-28) glucose agar.
i) The disc diffusion method used an overnight culture of E. coli N99 in Davis and Mingioli broth as an ioculum for the agar (e.g. 500 μl/100 ml agar). Test compounds were dissolved in distilled water and placed on to a 6 mm diameter disc which had just been applied to the agar surface. The plates were then incubated for 16 hours at 37° C. Using this method the following zones of inhibition were observed.

S. dublin 369001 = assay: mouse protection test; type: in vivo; parameters: unit not given beside the values; settings: mice
E. coli N99 [7] = assay: mouse protection test; type: in vivo; parameters: unit not given beside the values; settings: mice
Experimental: 4) The in vivo efficacy of the fluoroshikimate was determined by the use of a mouse protection test. Male mice (18-20 g) were inoculated intraperitoneally with ten times the previously determined LD50 for E. coli N99 in 0.4 ml of hog gastric mucin (12%). Immediately after infection the mice were dosed with 0.2 ml of test compound either subcutaneously, per os or intraperitoneally. Based on the number of survivors at day 4 post infection, PD50 values were calculated by LOGIT analysis.

Bacillus subtilis = assay: test compound in agar method, MIC; type: cell-based; settings: glucose agar, 16 hours at 37° C., read-out: MIC (minimum inhibitory concentration)
Experimental: as §2
(§3) ii) The "test compound in agar" method studied 6-α-fluoroshikimate at various final concentration in the agar (i.e. between 0 and 500 μg/ml) to obtain MIC (minimum inhibitory concentration) values for nine different bacterial cultures. Cultures were grown in Davis and Mingioli broth for 16 hours at 37° C. and diluted in fresh Davis and Mingioli broth to give 10^6 cells/ml. 1 μl volume of each culture was applied to the surface of each agar plate containing 6-α-fluoroshikimate and the plates were then incubated for 16 hours at 37° C. before each inoculation spot was visually assessed for growth. Using this technique the following results were observed: […]

[8] = system: Pseudomonas aeruginosa 799/wt; assay: test compound in agar method, MIC; type: cell-based; settings: glucose agar, 16 hours at 37° C., read-out: MIC (minimum inhibitory concentration)
Experimental: as §2, §3

Enterobacter cloacae [9] = assay: test compound in agar method, MIC; type: cell-based; settings: glucose agar, 16 hours at 37° C., read-out: MIC (minimum inhibitory concentration)
Experimental: as §2, §3

Klebsiella pneumoniae [10] = assay: test compound in agar method, MIC; type: cell-based; settings: glucose agar, 16 hours at 37° C., read-out: MIC (minimum inhibitory concentration)
Experimental: as §2, §3

Bacillus licheniformis = assay: test compound in agar method, MIC; type: cell-based; settings: glucose agar, 16 hours at 37° C., read-out: MIC (minimum inhibitory concentration)
Experimental: as §2, §3

Serratia marcescens = assay: test compound in agar method, MIC; type: cell-based; settings: glucose agar, 16 hours at 37° C., read-out: MIC (minimum inhibitory concentration)
Experimental: as §2, §3

E. coli. N99 = assay: test compound in agar method, MIC; type: cell-based; settings: Escherichia coli, glucose agar, 16 hours at 37° C., read-out: MIC (minimum inhibitory concentration)
Experimental: as §2, §3

E. coli. B = assay: test compound in agar method, MIC; type: cell-based; settings: Escherichia coli, glucose agar, 16 hours at 37° C., read-out: MIC (minimum inhibitory concentration)
Experimental: as §2, §3

[11] = system: Klebsiella pneumoniae ATCC 25304; assay: test compound in agar method, MIC; type: cell-based; settings: ATCC25304, glucose agar, 16 hours at 37° C., read-out: MIC (minimum inhibitory concentration)
Experimental: as §2, §3

S. aureus 601055 = assay: mouse protection test; type: in vivo; parameters: unit not given beside the values; settings: mice
E. coli N99 [12] = assay: reversal studies of growth inhibition by 6α-fluoroshikimate; type: cell-based; settings: in presence of 6α-fluoroshikimate; for Effect on the E. coli N99 inhibited growth: agent (each) at 100.0 μg/ml final well concentration, result in words
Experimental: 2) Reversal studies were performed by adding agents to an E. coli N99 (Davis and Mingioli broth) 10^6 cells/ml. suspension in the presence of 6α-fluoroshikimate and the bacterial growth assessed by the use of a spectrophotometer (Absorbance 540 nm)
Inhibition of bacterial growth was reversed by paraaminobenzoic acid (PABP) but degrees of counter reversion were seen after the addition of aromatic amino acid types. Using this technique the following results were observed: […]

carrot cells [13] = settings: well-known herbicide, in words; cited from earlier work
[14] = 16 hours at 37° C. (α: hazy zone), read-out: mm diameter zones of inhibition vs. E. coli N99

Q: Which “synergistic interaction with sulphamethoxazole” value (shortened to “synergistic interaction”) (Enterobacter cloacae [1]) does the source give for `O=C(O)C1=CC(O)C(O)C(O)C1F` (racemic) [6-fluoroshikimate (racemic mixture)] here?
A: synergistic interaction

Q: What about the “synergistic interaction” value (Klebsiella pneumoniae [2]) of the same compound?
A: synergistic interaction

Q: And the “synergistic interaction” value (E. coli K12 [3])?
A: synergistic interaction

Q: And the “IC50 (growth of carrot cells)” value (carrot cells [4])?
A: 1.5 μ/ml

Q: What about the “synergistic interaction” value (E. coli K12 [5]) of the same compound?
A: synergistic interaction was confirmed

Q: With `O=C(O)C1=C[C@@H](O)[C@@H](O)[C@H](O)[C@H]1F` [6-α-fluoroshikimate, (3R,4R,5S,6S)6-α-Fluoroshikimic acid] as the compound, how does the “PD50 (day 4)” value (E. coli 341094; per os) read?
A: 13.4

Q: What about the “PD50 (day 4)” value (E. coli 341094; subcutaneous) of the same compound?
A: 23.2

Q: What about the zone of inhibition at 0.025 µg/disc (E. coli N99 [6]; 0.025 μg applied on to disc, 16 hours at 37° C., read-out: mm diameter zones of inhibition vs. E. coli N99) of the same compound?
A: 0 mm

Q: What about the zone of inhibition at 0.05 µg/disc (E. coli N99 [6]; 0.05 μg applied on to disc, 16 hours at 37° C., hazy, read-out: mm diameter zones of inhibition vs. E. coli N99) of the same compound?
A: 10 mm

Q: What about the zone of inhibition at 1.5 µg/disc (E. coli N99 [6]; [14]) of the same compound?
A: 29 mm

Q: What about the zone of inhibition at 1.5 µg/disc (E. coli N99 [6]; 16 hours at 37° C., inner clear, read-out: mm diameter zones of inhibition vs. E. coli N99, inner clear zone) of the same compound?
A: 23 mm

Q: And the “PD50 (day 4)” value (S. dublin 369001; per os)?
A: 50

Q: What about the “PD50 (day 4)” value (S. dublin 369001; subcutaneous) of the same compound?
A: 20

Q: What about the “PD50 (day 4)” value (E. coli N99 [7]; intraperitoneal) of the same compound?
A: > 10

Q: What about the “PD50 (day 4)” value (E. coli N99 [7]; per os) of the same compound?
A: 8.6

Q: What about the “PD50 (day 4)” value (E. coli N99 [7]; subcutaneous) of the same compound?
A: 4.6

Q: And the MIC (Bacillus subtilis)?
A: 50 µg/mL (≈ 260 µM)

Q: And the MIC [8]?
A: > 500 µg/mL

Q: And the MIC (Enterobacter cloacae [9])?
A: 50 µg/mL (≈ 260 µM)

Q: What about the MIC (Klebsiella pneumoniae [10]) of the same compound?
A: 5 µg/mL (≈ 26 µM)

Q: What about the MIC (Bacillus licheniformis) of the same compound?
A: > 500 µg/mL

Q: And the MIC (Serratia marcescens)?
A: > 500 µg/mL

Q: And the MIC (E. coli. N99)?
A: 0.1 µg/mL (≈ 0.52 µM)

Q: What about the MIC (E. coli. B) of the same compound?
A: 1 µg/mL (≈ 5.2 µM)

Q: What about the MIC [11] of the same compound?
A: 1 µg/mL (≈ 5.2 µM)

Q: What about the “PD50 (day 4)” value (S. aureus 601055; per os) of the same compound?
A: 20

Q: And the “PD50 (day 4)” value (S. aureus 601055; subcutaneous)?
A: 20

Q: With `O=C(O)C1=C[C@@H](O)[C@@H](O)[C@H](O)[C@@H]1F` [6-β-fluoroshikimate, (3R,4R,5S,6R)6-β-Fluoroshikimic acid] as the compound, how does the zone of inhibition at 1.5 µg/disc (E. coli N99 [6]; [14]) read?
A: 0 mm

Q: What about the zone of inhibition at 3 µg/disc (E. coli N99 [6]; 3.0 μg applied on to disc, 16 hours at 37° C., very hazy, read-out: mm diameter zones of inhibition vs. E. coli N99) of the same compound?
A: 13 mm

Q: And the zone of inhibition at 30 µg/disc (E. coli N99 [6]; 30.0 μg applied on to disc, 16 hours at 37° C., very hazy, read-out: mm diameter zones of inhibition vs. E. coli N99)?
A: 26 mm

Q: Which “Effect on the E. coli N99 inhibited growth” value (E. coli N99 [12]) does the source give for `N[C@@H](Cc1ccccc1)C(=O)O` [L-Phenyl alanine] here?
A: No reversion

Q: With `N[C@@H](Cc1c[nH]c2ccccc12)C(=O)O` [L-tryptophan] as the compound, how does the “Effect on the E. coli N99 inhibited growth” value (E. coli N99 [12]) read?
A: No reversion

Q: Which “Effect on the E. coli N99 inhibited growth” value (E. coli N99 [12]) does the source give for `N[C@@H](Cc1ccc(O)cc1)C(=O)O` [L-tyrosine] here?
A: No reversion

Q: For `Nc1ccc(C(=O)O)cc1` [PABA, paraaminobenzoic acid], which “Inhibition of bacterial growth reversed” value (E. coli N99 [12]; Absorbance 540 nm) is on record?
A: reversed

Q: For `O=C(O)CNCP(=O)(O)O` [glyphosate], which “activity in the standard carrot cell test” value (carrot cells [13]) is on record?
A: active

— patent US5214165A, “Compounds useful as intermediates in the synthesis of shikimic acid derivatives” (Imperial Chemical Industries PLC, priority 1989, dated 1993)
